US20070043108A1, “Use of equol for ameliorating or preventing neuropsychiatric and neurodegenerative diseases or disorders” (priority 2002, published 2007)
Like-named read-outs stand apart in the source and are kept apart here.

What was measured:
[1] = target: T1, AR (Rattus norvegicus, UniProt P15207); test: Binding to the androgen receptor (prostate supernatant, [3H]DHT)
T1 construct: incubated with prostate supernatant and then passed through the 30 cm column; from tissue; host or cells: prostate supernatant
T1 sequence (P15207 1-902): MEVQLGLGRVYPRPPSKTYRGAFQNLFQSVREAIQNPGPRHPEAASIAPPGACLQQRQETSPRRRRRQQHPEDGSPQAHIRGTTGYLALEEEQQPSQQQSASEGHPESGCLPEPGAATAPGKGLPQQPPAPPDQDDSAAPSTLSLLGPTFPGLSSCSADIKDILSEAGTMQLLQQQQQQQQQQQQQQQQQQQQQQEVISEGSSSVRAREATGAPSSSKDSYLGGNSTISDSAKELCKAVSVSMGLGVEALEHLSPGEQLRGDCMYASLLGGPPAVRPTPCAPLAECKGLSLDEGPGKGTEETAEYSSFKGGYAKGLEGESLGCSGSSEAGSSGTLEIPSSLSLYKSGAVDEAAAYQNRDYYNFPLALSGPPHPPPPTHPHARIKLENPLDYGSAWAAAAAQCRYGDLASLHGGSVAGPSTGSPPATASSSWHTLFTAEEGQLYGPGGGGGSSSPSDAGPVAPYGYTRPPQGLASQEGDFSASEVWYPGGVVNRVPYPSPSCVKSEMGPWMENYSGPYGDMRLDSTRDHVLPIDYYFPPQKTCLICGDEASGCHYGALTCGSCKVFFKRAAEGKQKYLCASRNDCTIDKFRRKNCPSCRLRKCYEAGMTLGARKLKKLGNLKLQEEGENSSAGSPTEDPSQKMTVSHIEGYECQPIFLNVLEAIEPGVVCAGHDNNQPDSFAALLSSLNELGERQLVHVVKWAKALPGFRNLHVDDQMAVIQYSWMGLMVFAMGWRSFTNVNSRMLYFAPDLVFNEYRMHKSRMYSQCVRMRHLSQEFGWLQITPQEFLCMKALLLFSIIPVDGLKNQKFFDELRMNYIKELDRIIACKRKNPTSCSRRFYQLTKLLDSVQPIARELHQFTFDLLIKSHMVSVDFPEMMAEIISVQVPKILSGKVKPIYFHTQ

[2] = test system: Adult male Sprague-Dawley rats; test: Example 3: prostate, epididymis and body weight gain in male rats treated with racemic, R- or S-equol; assay type: in vivo, rat; settings: for Body Wt Gain (g) / Epididymis (g) / Prostate (g): 0.25 mg/kg/day sc, seven days
Procedure: Adult male Sprague-Dawley rats are randomly assigned to […] groups and receive daily injections of either DMSO, a racemic mixture of equol at 0.250 mg/kg/day), R-equol at 0.250 mg/kg/day, or S-equol at 0.250 mg/kg/day. The total volume of each injection is 0.3 cc, administered sc at the nape of the rat's neck. After seven consecutive days of treatment, the rats are killed and the body weight gain during the injection period is determined.

[3] = test system: Adult male Sprague-Dawley rats; test: Example 15: elevated plus maze of equol injected male rats; assay type: in vivo, rat; settings: 0.250 mg/Kg/day sc, seven days, n = 8
Text: The elevated plus maze is a behavioral test used to quantify anxiety-related behavior and identify anxiolytic drugs (Pellow S. et al., J Neurosci Methods, 14:149-147 (1985); Current Protocols In Neuroscience (1997) 8.3.1-8.3.15, John Wiley & Sons. NY, N.Y.). The test relies on the inherent conflict between exploration of a novel environment and avoidance of its aversive features. Normally, animals spend little time and make few entries into the open arms of the maze compared to the closed arms of the maze (Imhof J. T. et al., Behav Brain Res, 56:177-180 (1993). However, animals treated with anxiolytics, such as benzodiazepines (valium), spend more time in the open arms and the number of entries into the open arms reflects a decrease in anxiety-related behaviors (Pellow S. et al., J Neurosci Methods, 14:149-147 (1985); Current Protocols In Neuroscience (1997) 8.3.1-8.3.15, John Wiley & Sons. NY, N.Y.; Chopin P. et al., Psychopharm, 110:409-414 (1993).
Adult male Sprague-Dawley rats receive daily injections of either DMSO, racemic equol (0.250 mg/Kg/day), R-equol (0.250 mg/Kg/day), or S-equol (0.250 mg/Kg/day) in a total volume of 0.3 cc DMSO by subcutaneous injection. At the end of seven consecutive days of treatment the animals are tested in the elevated plus maze in order to quantify anxiety-related behaviors.

[4] = test system: GDX males; test: Examples 5 and 6: gonadectomized (GDX) male rats treated with DHTP, equol or both; histology; assay type: in vivo, rat
Procedure: One week following arrival, animals are gonadectomized (GDX) under isoflurane anesthesia and allowed to recover for 7 days. Following recovery, animals are assigned to the following groups 1) DMSO, 2) DHTP (2 mg/1 kg), 3) racemic equol (0.25 mg/kg), or 4) both DHTP and racemic equol. Injections are given subcutaneously daily for 4 days. Animals are killed via decapitation and trunk blood and tissues are collected for analysis.
Tissues, including prostate, testes and epididymis, are removed from the animal, dissected free of fat and connective tissues, weighed, fixed by immersion in 4% paraformaldehyde, and then sectioned at 15 μm on a cryostat. Tissue sections are mounted on charged slides (Superfrost Plus, Fisher Scientific, Pittsburgh, Pa.) prewarmed to 23° C., and stained with hematoxylin and eosin (H&E), dehydrated in ascending alcohol and cleared with xylene.

| Compound | binding to the androgen receptor [1] | Body Wt Gain (g) [2] | Epididymis (g) [2] | Prostate (g) [2] | Center Area [3] [s] | Open Arm Time [3] [s] | binding to the androgen receptor ([1]; listed as Equol racemic) | decrease in body weight ([2]; equol experiments) | reduction in white adipose tissue deposition ([2]; racemic equol injections) | LH, in combination with DHTP ([4]; GDX males, DHTP+equol) | prostate weight, concomitant treatment with DHTP ([4]; GDX males, DHTP+equol) | LH ([4]; GDX males, given alone, vs DMSO) | prostate weight ([4]; GDX males, given alone, vs vehicle-treated GDX) | plasma 5α-DHT, co-treatment of DHTP-treated animals with equol ([4]; GDX+equol+DHTP vs GDX+DHTP) |
| --- | --- | --- | --- | --- | --- | --- | --- | --- | --- | --- | --- | --- | --- | --- |
| Oc1ccc([C@@H]2COc3cc(O)ccc3C2)cc1 [R-equol] | does not bind the androgen receptor | 45.6 (±5.5) g | 0.85 (±0.04) g | 0.31 (±0.02) g | 36.4 ± 7.6 | 50.0 ± 10.0 |  |  |  |  |  |  |  |  |
| Oc1ccc(C2COc3cc(O)ccc3C2)cc1 (racemic) [equol, 7-hydroxy-3(4′hydroxyphenyl)-chroman] | does not compete with 5α-DHT for the AR | 56.1 (±3.7) g | 0.89 (±.03) g | 0.38 (±0.02) g | 37.1 ± 6.3 | 40.9 ± 7.0 | does not bind the androgen receptor | around 10% | around 36% | blocks the negative feedback effects of DHTP on LH secretion | blocks the effects of DHTP | no effect on LH levels | no effect alone on prostate size | further elevated, although, not significantly |
